The source of these data is patent publication US7115624B1, “Method of inhibiting protein tyrosine phosphatase 1B and/or T-cell protein tyrosine phosphatase 4 and/or other PTPases with an Asp residue at position 48” (Novo Nordisk A/S, priority 1999, dated 2006).

What is called Ki is the equilibrium dissociation constant of an inhibitor or competing ligand from its target.

Common to all, as to assay type: biochemical
One experiment has as its target T1, TC-PTP (Homo sapiens, UniProt P17706).
T1 sequence (P17706 5-275 limits assumed): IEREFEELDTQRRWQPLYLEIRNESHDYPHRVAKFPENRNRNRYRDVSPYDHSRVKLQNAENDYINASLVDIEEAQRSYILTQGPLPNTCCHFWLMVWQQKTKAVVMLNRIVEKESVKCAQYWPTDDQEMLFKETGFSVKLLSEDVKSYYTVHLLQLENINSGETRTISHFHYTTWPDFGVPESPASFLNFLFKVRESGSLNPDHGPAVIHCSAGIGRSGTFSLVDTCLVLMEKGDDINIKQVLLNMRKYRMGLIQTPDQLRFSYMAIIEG
In words: PTPase inhibition, p-nitrophenyl phosphate substrate, Ki. The following applies: pH 7.0 (Table 5). How it is done:
(§1) Specificity against a broad set of PTPs—It was next analyzed if the side chain of NNC 52–1153 would cause the increased selectivity against other PTPs. NNC 52–1153 was tested against a set of 10 different wt PTP domains (Table 5). It appears from this table that a substantial increase in affinity for PTP1B and TC-PTP has been obtained, while at the same time introducing a very high degree of selectivity against many other PTPs representing a broad spectrum of this class of enzymes (having Asp 48).
(§2) The assay conditions are as follows.

A further experiment deals with T2, GLEPP1 (Homo sapiens, UniProt Q16827).
T2 sequence (Q16827 938-1195 limits assumed): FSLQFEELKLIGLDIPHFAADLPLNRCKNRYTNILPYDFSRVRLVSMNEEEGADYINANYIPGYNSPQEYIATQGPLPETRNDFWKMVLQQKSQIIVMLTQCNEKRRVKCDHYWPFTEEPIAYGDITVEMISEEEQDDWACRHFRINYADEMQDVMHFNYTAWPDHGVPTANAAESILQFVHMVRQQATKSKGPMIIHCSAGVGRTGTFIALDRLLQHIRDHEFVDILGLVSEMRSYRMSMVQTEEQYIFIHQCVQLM
The experiment is described as above. The following applies: pH 7.0 (Table 5). The method, then:
as §1, §2

In a further experiment the target is T3, PTPα (Homo sapiens, UniProt P18433).
T3 construct: PTPα D1
Described as above. To be noted: pH 7.0 (Table 5); read-out: Ki values, PTPα.

A further experiment deals with T4, LAR (Homo sapiens, UniProt P10586).
T4 sequence (P10586 1285-1907 limits assumed): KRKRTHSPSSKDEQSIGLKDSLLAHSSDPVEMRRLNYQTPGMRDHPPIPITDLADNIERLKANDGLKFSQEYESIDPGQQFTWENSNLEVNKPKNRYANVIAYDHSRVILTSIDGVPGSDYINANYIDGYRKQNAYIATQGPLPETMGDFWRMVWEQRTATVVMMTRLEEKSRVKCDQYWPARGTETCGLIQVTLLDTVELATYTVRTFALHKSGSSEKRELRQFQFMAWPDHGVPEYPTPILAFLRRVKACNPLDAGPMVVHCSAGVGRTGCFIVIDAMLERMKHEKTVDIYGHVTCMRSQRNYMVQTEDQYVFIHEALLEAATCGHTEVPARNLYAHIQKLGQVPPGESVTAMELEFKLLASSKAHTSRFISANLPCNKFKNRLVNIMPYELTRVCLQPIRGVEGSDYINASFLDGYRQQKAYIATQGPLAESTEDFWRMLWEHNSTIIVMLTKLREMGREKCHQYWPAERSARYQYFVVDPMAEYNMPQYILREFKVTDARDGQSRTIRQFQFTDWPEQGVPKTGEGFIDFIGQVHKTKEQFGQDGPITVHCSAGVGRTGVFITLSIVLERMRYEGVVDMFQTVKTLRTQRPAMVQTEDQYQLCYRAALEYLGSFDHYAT
The experiment is described as above. The following applies: pH 7.0 (Table 5); read-out: Ki values, LAR.

In the next experiment the target is T5, PTP1B G259M (Homo sapiens, UniProt P18031, G259M).
T5 sequence (P18031 1-435 G259M): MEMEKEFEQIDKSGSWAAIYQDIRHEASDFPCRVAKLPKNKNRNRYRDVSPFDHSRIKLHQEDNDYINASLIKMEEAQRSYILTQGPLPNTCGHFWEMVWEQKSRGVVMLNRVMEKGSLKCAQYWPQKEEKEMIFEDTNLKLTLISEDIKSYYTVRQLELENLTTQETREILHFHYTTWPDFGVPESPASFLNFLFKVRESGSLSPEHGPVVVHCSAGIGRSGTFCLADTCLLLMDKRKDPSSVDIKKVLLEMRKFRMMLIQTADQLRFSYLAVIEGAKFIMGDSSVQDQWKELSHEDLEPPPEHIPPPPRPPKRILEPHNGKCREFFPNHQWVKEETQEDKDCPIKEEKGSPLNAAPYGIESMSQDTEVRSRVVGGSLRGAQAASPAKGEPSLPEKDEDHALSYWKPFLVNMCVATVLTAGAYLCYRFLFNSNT
In words: Enzyme kinetic analysis with mutant PTPs, Ki. The following applies: pH 7.0.
Excerpt: (§3) To test directly, whether the above compound was addressing the proposed region of PTP1B, Compound N was subjected to detailed enzyme kinetic analyses using a set of wildtype (wt) and mutant PTPs. Two enzymes, PTPα and PTPH1, were chosen as representatives for PTPs with bulky side chains in the 259 position. Using a combination of wt and PTP mutants it has previously been shown that Gln259 in PTPα, in addition to its direct effect, also indirectly influences the binding of inhibitors and substrates, most likely due to a negative influence on the rotational freedom of the side chain of Gln262 (Peters et al., J. Biol. Chem. 275: 18201–18209 (2000)). As described above, selectivity can be obtained by introducing a basic nitrogen into 2-(oxalylamino)-4,5,6,7-tetrahydrobenzo[b]thiophene-3-carboxylic acid that causes attraction in PTP1B due to salt bridge formation to Asp48 and repulsion against PTPs with an asparagine in the 48 position, such as PTPα. To analyze if the current approach based on steric hindrance is generally applicable, it was decided to include a PTP with an aspartic acid in position 48. PTPH1, which like PTP1B is an intracellular enzyme with one domain only, was selected for these studies. The results of these studies are shown below (Table 4).
as §2

Another experiment deals with T6, PTPH1 M259G (Homo sapiens, UniProt P26045, M883G).
T6 sequence (P26045 628-913 M883G limits assumed): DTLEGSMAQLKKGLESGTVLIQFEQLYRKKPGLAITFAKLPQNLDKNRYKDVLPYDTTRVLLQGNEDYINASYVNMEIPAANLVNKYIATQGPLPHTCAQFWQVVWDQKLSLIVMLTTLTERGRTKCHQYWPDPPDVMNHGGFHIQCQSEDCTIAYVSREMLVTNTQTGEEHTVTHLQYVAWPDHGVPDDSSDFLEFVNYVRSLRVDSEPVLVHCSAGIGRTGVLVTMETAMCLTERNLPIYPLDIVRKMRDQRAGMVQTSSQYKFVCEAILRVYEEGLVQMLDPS
In words: Enzyme kinetic analysis with mutant PTPs, Ki. To be noted: pH 7.0.
Excerpt: as §3, §2

T3 sequence (P18433 241-501 limits assumed): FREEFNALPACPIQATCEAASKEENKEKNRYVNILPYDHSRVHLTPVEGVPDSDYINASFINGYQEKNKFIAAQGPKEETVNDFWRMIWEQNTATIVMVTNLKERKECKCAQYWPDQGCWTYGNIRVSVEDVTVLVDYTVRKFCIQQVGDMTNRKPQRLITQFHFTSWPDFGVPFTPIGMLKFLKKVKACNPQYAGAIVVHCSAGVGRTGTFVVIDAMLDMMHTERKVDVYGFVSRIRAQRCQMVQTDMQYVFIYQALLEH
Description for LAR: The compounds are evaluated for biological activity with a truncated form of PTP1B (corresponding to the first 321 amino acids), which was expressed in E. coli and purified to apparent homogeneity using published procedures well-known to those skilled in the art. The enzyme reactions are carried out using standard conditions essentially as described by Burke et al. (Biochemistry 35; 15989–15996 (1996)) incorporated by reference. […] Appropriate concentrations of the compounds of the invention (e.g., 0.1 to 100 μM) are added to the reaction mixtures containing different concentrations of the substrate, p-nitrophenyl phosphate (range: 0.16 to 10 mM—final assay concentration). The buffer used was 50 mM HEPES pH 7.0, 100 mM sodium chloride, 0.1% (w/v) bovine serum albumin, 5 mM glutathione, and 1 mM EDTA. The reaction was started by addition of the enzyme and carried out in microtiter plates at 25° C. for 60 minutes. The reactions are stopped by addition of NaOH. The enzyme activity was determined by measurement of the absorbance at 405 nm with appropriate corrections for absorbance at 405 nm of the compounds and p-nitrophenyl phosphate. The data are analyzed using nonlinear regression fit to classical Michaelis Menten enzyme kinetic models. Inhibition is expressed as Ki values in μM.

`O=C(O)C(=O)Nc1sc2c(c1C(=O)O)CCOC2COC1=NS(=O)(=O)c2ccccc21` (stereo not drawn) [Compound N, 7-(1,1-dioxo-1H-benzo[d]isothiazol-3-yloxymethyl)-2-(oxalyl-amino)-4,7-dihyd ro-5H-thieno[2,3-c]pyran-3-carboxylic acid]: the Ki amounted to 0.6 µM on TC-PTP; 150 µM on GLEPP1; 700 µM at PTPα; 120 µM on LAR; 55 µM at PTP1B G259M; 12 µM on PTPH1 M259G.
